{
  "source": "patent US8354547B2",
  "about": "“4β-amino podophyllotoxin congeners as anti tumour antibiotics a process for the preparation thereof” (Council of Scientific & Industrial Research, priority 2008, dated 2013)",
  "key": {"[1]": {"tested_on": "leukemia (MOLT-4) cells", "assay": "DNA laddering (fragmentation) assay by gel electrophoresis", "assay_type": "cell-based", "settings": "0.5, 1, 5, and 10 μM, 24 hr incubation (FIG. 4)", "protocol": "(§1) Compound 3d evaluated for DNA laddering assay.\nDNA fragmentation was determined by electrophoresis of extracted genomic DNA form leukemia cell (MOLT4). Briefly, exponentially growing cells (2×10^6 cells/mL) in 6 well plate were treated with compound 3d in 0.5, 1, 5 and 10 μM concentrations for 24 hrs. Cells were harvested, washed with PBS, pellets were dissolved in lyris buffer (10 mM EDTA, 50 mM Tris pH 8.0, 0.5% w/v SDS and proteinase K (0.5 mg/mL) and incubated at 50° C. for 1 hr. Finally the DNA obtained was heated rapidly to 70° C., supplemented with loading dye and immediately resolved on to 1.5% agarose gel at 50 V for 2-3 hrs (FIG. 4)."}, "[2]": {"tested_on": "Breast (MCF-7) cancer cell line", "assay": "SRB in vitro cytotoxicity assay, Breast MCF-7", "assay_type": "cell-based, human", "settings": "concentration 1 × 10^−5 (μM/mL)", "protocol": "(§2) Single cell suspension of the tumor cells grown in tissue culture were made, cells counted and cell count adjusted to 1×10^5 to 5×10^5 Ninetysix (96) well plates were seeded with this cell suspension, each well receiving 100 μl of it. The plate was then be incubated at 37° C. temperature in CO2 incubator for 24 hours. Drugs were added at appropriate concentrations after 24-hour, incubation followed by further incubation for 48 hours. Experiment was terminated by gently layering the cells in the wells with 30% TCA and plates were kept in refrigerator for 1 hour following which they were washed thoroughly with tap water, dried attained with 0.4% SRB in 1% acetic aid and finally, the bound SRB eluted with 10 mM tris. Absorbance was read at 540 nm, in the microtitre-plate reader. Optical density of drug-treated cells was compared with that of control cells and cell inhibition was calculated as percent values. […]"}, "[3]": {"tested_on": "CNS (SK-N-SH) cancer cell line", "assay": "SRB in vitro cytotoxicity assay, CNS SK-N-SH", "assay_type": "cell-based, human", "settings": "concentration 1 × 10^−5 (μM/mL)", "protocol": "as §2"}, "[4]": {"tested_on": "Lukemia (HL-60) cells", "assay": "DNA cell cycle analysis by flow cytometry", "assay_type": "cell-based", "settings": "0.5, 1, 5, and 10 μM, 24 hr (FIG. 5)", "protocol": "as §1\nEffect of compound 3d on DNA content by cell cycle phase distribution was assessed using HL-60 cells by incubating the HL-60 cells (1×10^6) 1 ml phosphate buffer saline were treated with 3d (0.5, 1, 5, 10 μM) for 24 hr. The cells were then washed twice with ice-cold PBS, harvested, fixed with ice cold PBS in 70% ethanol, and stored at −20° C. for 30 minutes. After Fixation, these cells were incubated with RNase A (0.1 mg/ml) at 37° C. for 30 min, stained with propidium iodide (50 μg/ml) for 30 min on ice in dark, and then measured for DNA content using BD-LSR flow cytometer (Becton Dickinson, USA) equipped with electronic doublet discrimination capability using blue (488 nm) excitation from orgon laser. Data were collected in list mode on 10,000 events for FL2-A vs. FL2-W (FIG. 5)."}, "[5]": {"molecular_target": "T1, Topoisomerase-I (Homo sapiens, UniProt P11387)", "T1 sequence (P11387 1-765)": "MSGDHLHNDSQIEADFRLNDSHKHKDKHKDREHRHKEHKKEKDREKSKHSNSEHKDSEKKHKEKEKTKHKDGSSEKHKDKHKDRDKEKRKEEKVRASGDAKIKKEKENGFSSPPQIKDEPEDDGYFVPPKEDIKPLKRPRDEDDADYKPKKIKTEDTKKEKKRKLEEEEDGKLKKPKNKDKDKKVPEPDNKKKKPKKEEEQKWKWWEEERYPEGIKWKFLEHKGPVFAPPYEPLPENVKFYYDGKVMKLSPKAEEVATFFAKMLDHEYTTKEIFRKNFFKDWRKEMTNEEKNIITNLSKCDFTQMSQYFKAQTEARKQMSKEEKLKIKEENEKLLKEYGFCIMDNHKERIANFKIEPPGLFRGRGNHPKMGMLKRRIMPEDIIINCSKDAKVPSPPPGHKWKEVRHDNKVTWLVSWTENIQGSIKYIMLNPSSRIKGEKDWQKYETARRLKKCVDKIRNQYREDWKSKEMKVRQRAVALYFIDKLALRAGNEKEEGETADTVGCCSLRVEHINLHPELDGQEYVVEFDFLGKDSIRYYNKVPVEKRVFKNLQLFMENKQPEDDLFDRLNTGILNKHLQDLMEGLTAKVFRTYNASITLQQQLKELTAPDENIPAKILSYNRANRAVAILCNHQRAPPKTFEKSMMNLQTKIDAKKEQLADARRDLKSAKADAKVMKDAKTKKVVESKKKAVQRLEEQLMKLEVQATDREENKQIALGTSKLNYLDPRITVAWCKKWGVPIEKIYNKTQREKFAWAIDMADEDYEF", "assay": "Topoisomerase-I relaxation assay", "assay_type": "biochemical", "settings": "at 100 μM (FIG. 2)", "protocol": "Apart from this, some of these analogues were evaluated for Topoisomerase-I relaxation, Topoisomerase-II inhibition, DNA laddering assay and DNA cell cycle analysis. Compounds 3c, 4c, 3d and 4d were analyzed for topoisomerase-I assay at 100 μM (FIG. 2) only compound 3d was found active and rest were not active. Compounds 3d, 4d and 4c were analyzed for topoisomerase inhibition assay.\nReaction was assembled in micro centrifuge tube that contains super coiled DNA 250 ng/μl & Topoisomerase-I (4 units) in assay buffer (10 mM Tris-HCl, pH 7.9, 0.15 M NaCl, 0.1% BSA, and 5.0 mM (beta)-mercaptoethanol). In each reaction 2 μl sample was added then volume was made up to 20 μl with water and then incubated at 37° C. Reaction was terminated by addition of 2 μl of 10% SDS. Each sample tube was treated with proteinase K and extracted once with chloroform: isoamyl alcohol. Products were resolved by 0.8% agarose gel electrophoresis in TAE buffer (40 mM tris-acetate, pH 8.0, and 1 mM EDTA) and stained with 0.5 μg/ml ethedium bromide (EtBr)."}, "[6]": {"tested_on": "Colon (SW-620) cancer cell line", "assay": "SRB in vitro cytotoxicity assay, Colon SW-620", "assay_type": "cell-based, human", "settings": "concentration 1 × 10^−5 (μM/mL)", "protocol": "as §2"}, "[7]": {"tested_on": "Liver (HEP-2) cancer cell line", "assay": "SRB in vitro cytotoxicity assay, Liver HEP-2", "assay_type": "cell-based, human", "settings": "concentration 1 × 10^−5 (μM/mL)", "protocol": "as §2"}, "[8]": {"tested_on": "Colon (Colo-205) cancer cell line", "assay": "SRB in vitro cytotoxicity assay, Colon Colo-205", "assay_type": "cell-based, human", "settings": "concentration 1 × 10^−5 (μM/mL)", "protocol": "as §2"}, "[9]": {"tested_on": "Neuroblastoma (IMR-32) cancer cell line", "assay": "SRB in vitro cytotoxicity assay, Neuroblastoma IMR-32", "assay_type": "cell-based, human", "settings": "concentration 1 × 10^−5 (μM/mL)", "protocol": "as §2"}},
  "data": [
    {"compound": "COc1cc([C@@H]2c3cc4c(cc3[C@@H](Nc3cc5c6ccccc6ccc5c5ccccc35)[C@@H]3COC(=O)[C@H]23)OCO4)cc(OC)c1OC", "note": "[Compound 3d, 4β-(6″-Chrycenylamino)-4-desoxypodophyllotoxin]", "values": [
      {"measurement": "DNA fragmentation", "setting": "[1]", "result": "induced DNA fragmentation"},
      {"measurement": "Growth Inhibition(%) Breast MCF-7", "setting": "[2]", "result": 0, "unit": "%"},
      {"measurement": "Growth Inhibition(%) CNS SK-N-SH", "setting": "[3]", "result": 73, "unit": "%"},
      {"measurement": "cell cycle phase block", "setting": "[4]", "result": "blocks the G1 Phase"},
      {"measurement": "sub G1 cell population (apoptosis)", "setting": "[4]", "result": "increase"},
      {"measurement": "activity in topoisomerase-I assay", "setting": "[5]", "result": "active"},
      {"measurement": "Growth Inhibition(%) Colon SW-620", "setting": "[6]", "result": 14, "unit": "%"},
      {"measurement": "Growth Inhibition(%) Liver HEP-2", "setting": "[7]", "result": 66, "unit": "%"},
      {"measurement": "Growth Inhibition(%) Colon Colo-205", "setting": "[8]", "result": 51, "unit": "%"},
      {"measurement": "Growth Inhibition(%) Neuroblastma IMR-32", "setting": "[9]", "result": 1, "unit": "%"}
    ]}
  ]
}
